Series [1] deals with L-6 cells. Description: In vitro cytotoxicity with L-6 cells (resazurin). It counts as cell-based, rat. The method, then: (§1) Serial drug dilutions of 11 3-fold dilution steps covering a range from 100 to 0.002 μg/mL were prepared. After 70 h of incubation, the plates were inspected under an inverted microscope to assure the growth of the controls and sterile conditions. […] The plates were read with a Spectramax Gemini XS microplate fluorometer (Molecular Devices Cooperation, Sunnyvale, CA, USA) using an excitation wavelength of 536 nm and an emission wavelength of 588 nm. The IC50 values were calculated by linear regression from the sigmoidal dose inhibition curves using SoftmaxPro software Version 8.2.1 (Molecular Devices Cooperation, Sunnyvale, CA, USA). Podophyllotoxin (Sigma P4405) was used as control.

Series [2] concerns P. falciparum NF54. Kind of series: In vitro microplate assay against P. falciparum (3H-hypoxanthine incorporation). Format: cell-based, Plasmodium falciparum. The note with it: for S.I. = IC50 (Cyt.)/IC50 (P.f.NF54): L-6 cells vs P.f. NF54. The method, then:
In vitro activity against the erythrocytic stages of P. falciparum was determined using a ^3H-hypoxanthine incorporation assay, using the drug sensitive NF54 strain [37]. […] The 96-well plates were incubated in a humidified atmosphere at 37 °C, 4% CO2, 3% O2 and 93% N2. After 48 h, 0.05 mL of ^3H-hypoxanthine (=0.5 µCi) was added to each well of the plate. The plates were incubated for a further 24 h under the same conditions. The plates were then harvested with a Betaplate cell harvester (Wallac, Zurich, Switzerland). The red blood cells were transferred onto a glass fiber filter and washed with distilled water. The dried filters were inserted into a plastic foil with 10 mL of scintillation fluid and counted in a Betaplate liquid scintillation counter (Wallac, Zurich, Switzerland). The IC50 values were calculated from sigmoidal inhibition curves by linear regression using Microsoft Excel. Chloroquine (Sigma C6628) was used as control.

Series [3] has as its system P. falciparum NF54. Also on record: method as in PMID 33925485. The conditions noted are these: formerly prepared compounds 1–5, cited from earlier work; for pIC50: chloroquine-sensitive strain NF54, read-out: P.f. NF54 IC50.
The test system of series [4] is L-6 cells. Also on record: method as in PMID 33925485. The note with it: formerly prepared compounds 1–5; read-out: Cytotoxicity L-6 Cells IC50; cited from earlier work.
Series [5] concerns the target CYP3A4 (Homo sapiens, UniProt P08684). Kind of series: Cytochrome P450 3A4 inhibition assay (P450-Glo, Luciferin-IPA). The conditions noted are these: recombinant human CYP3A4 Supersomes (+ oxidoreductase + b5), pH 7.4, probe Luciferin-IPA. The method, then:
The CYP3A4 inhibition assay was performed using 96-well white plates (Greiner Bio-One) at a pH of 7.4. […] Stock solutions were further diluted to a final concentration of 20 µM using water (HPLC grade). The luciferin IPA stock solution (3 mM) was diluted to a final concentration of 0.3 mM using water (HPLC grade). The CYP3A4 reaction mixture was prepared by mixing water (HPLC grade) with potassium phosphate buffer (1 M), luciferin IPA (0.3 mM) and CYP3A4 membrane (1 pmol/µL). The control reaction mixture was prepared using water (HPLC grade), potassium phosphate buffer (1 M), luciferin IPA (0.3 mM) and membrane without CYP activity (1 pmol/µL). Solutions A and B of the NADPH regeneration system were mixed and HPLC grade water was added. The reconstituted luciferin detection reagent was prepared by mixing the reconstituted buffer with esterase with the luciferin detection reagent. Then, solutions of test compounds and standard were added to the wells of the 96-well white plate; each was tested in triplicate. The CYP3A4 reaction mixture was added to each well and the plate was incubated for 10 min at room temperature. After that, the NADPH regeneration system was added, inducing the reaction followed by an incubation time of 10 min at ambient temperature. By adding the reconstituted luciferin detection reagent, the reaction was terminated and a luminescent signal was formed. Luminescence was measured by a SpectraMax M3 UV plate reader (Molecular Devices). The relative light units (RLU) were received from a calibration curve with beetle luciferin. […] The CYP3A4 inhibition (%) was calculated from the RLU.

Series [6] in a line: In vitro cytotoxicity with L-6 cells (resazurin). The conditions noted are these: rat. It counts as cell-based, rat. The method, then: as §1
Where [7] appears, read: rat skeletal myofibroblasts, average of four determinations, read-out: Cytotoxicity L-6 Cells IC50.
Setting [8] is: Plasmodium falciparum, NF54, chloroquine-sensitive strain NF54, average of four determinations, read-out: P.f. NF54 IC50.

pIC50: −log10 of the molar value. Read-outs that look alike come from different tables or passages of the source.

CYP3A4, sequence (P08684 2-503 limits assumed): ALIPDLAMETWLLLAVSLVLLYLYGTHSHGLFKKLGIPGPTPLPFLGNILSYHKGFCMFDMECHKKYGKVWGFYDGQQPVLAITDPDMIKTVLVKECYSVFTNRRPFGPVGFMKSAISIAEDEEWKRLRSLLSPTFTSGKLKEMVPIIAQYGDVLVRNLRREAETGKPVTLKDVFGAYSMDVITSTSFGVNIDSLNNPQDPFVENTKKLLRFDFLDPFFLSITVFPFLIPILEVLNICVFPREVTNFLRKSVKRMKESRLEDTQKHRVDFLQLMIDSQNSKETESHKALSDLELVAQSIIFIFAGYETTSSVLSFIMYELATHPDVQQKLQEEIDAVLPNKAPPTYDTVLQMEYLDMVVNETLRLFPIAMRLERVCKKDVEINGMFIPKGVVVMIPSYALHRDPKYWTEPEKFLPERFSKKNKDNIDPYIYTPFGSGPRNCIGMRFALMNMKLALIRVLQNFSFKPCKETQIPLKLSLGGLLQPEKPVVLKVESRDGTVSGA

On to `CCN(CC)CCCC(C)Nc1ccnc2cc(Cl)ccc12` (centres unmarked) [CQ, chloroquine, reference compound], for which the pIC50 is 4.04 in series [1] (setting [7]) and 8.05 in series [2] (Plasmodium falciparum, NF54, read-out: P.f. NF54 IC50). Also, in series [2], the “S.I. = IC50 (Cyt.)/IC50 (P.f.NF54)” value amounted to 9672.
Turning to `CCOc1ccc(-c2nonc2NC(=O)c2cccc(C)c2)cc1OCC` [Compound 1, reference compound], the pIC50 is 7.96 in series [3] and 3.80 in series [4]. The “S.I. = IC50 (Cyt.)/IC50 (P.f.NF54)” value in series [3] is recorded as 14,483. Besides, the inhibition at 10 min, 20 µM in series [5] came out at 45%.
In the case of `CCOc1ccc(-c2nonc2NC(=O)c2ccccc2)cc1OCC` [Compound 2], in series [3], the negative logarithm of the IC50 (pIC50) was 7.12 and the “S.I. = IC50 (Cyt.)/IC50 (P.f.NF54)” value is 1463. The pIC50 in series [4] is 3.95.
For `CCOc1ccc(-c2nonc2NC(=O)c2cccc(F)c2)cc1OCC` [Compound 3], in series [3], the pIC50 was 7.31 and the “S.I. = IC50 (Cyt.)/IC50 (P.f.NF54)” value is on record as 839.6. In series [4], the negative logarithm of the IC50 (pIC50) is 4.39.
For `CCOc1ccc(-c2nonc2NC(=O)c2cccc(C(F)(F)F)c2)cc1OCC` [Compound 4], in series [3], the negative logarithm of the IC50 (pIC50) was 7.72 and the “S.I. = IC50 (Cyt.)/IC50 (P.f.NF54)” value is recorded as 524.6. Also, in series [4], the pIC50 is 5.00.
As for `CCOc1ccc(-c2nonc2NC(=O)c2ccc(OC)c(Cl)c2)cc1OCC` [Compound 5], the results for the pIC50 in series [3] and in series [4] were 7.85 and 4.70, respectively. The “S.I. = IC50 (Cyt.)/IC50 (P.f.NF54)” value in series [3] is reported as 1431.
Take `O=C(Nc1nonc1-c1ccc(F)cc1)c1cccc(F)c1` [Compound 45, 3-Fluoro-N-[4-(4-fluorophenyl)-1,2,5-oxadiazol-3-yl]benzamide]: the melting point was 169 °C. In series [6], the IC50 at 72 h was 11.2 µM. Moreover, in series [2], the “S.I. = IC50 (Cyt.)/IC50 (P.f.NF54)” value was 1.000. Further, in series [2] (setting [8]), the pIC50 was 4.95. In series [5], the inhibition at 10 min, 20 µM came out at 60%.
The like results for `Cc1cccc(C(=O)Nc2nonc2-c2ccc(Cl)cc2)c1` [Compound 47, N-[4-(4-Chlorophenyl)-1,2,5-oxadiazol-3-yl]-3-methylbenzamide] were, in that order, 165 °C, 136 µM, 15.54, 5.06 and 57%.
Compound `CCOc1cc(-c2nonc2NC(=O)c2cccc(C)c2)ccc1OC` [Compound 51, N-[4-(3-Ethoxy-4-methoxyphenyl)-1,2,5-oxadiazol-3-yl]-3-methylbenzamide] displayed a melting point of 280 °C. For the same compound, the IC50 at 72 h in series [6] turned out to be 51.9 µM. Besides, the “S.I. = IC50 (Cyt.)/IC50 (P.f.NF54)” value in series [2] was 1526. In series [2] (setting [8]), the pIC50 is 7.47. Also, the inhibition at 10 min, 20 µM in series [5] came to 66%.
For the compound `CCOc1ccc(-c2nonc2NC(=O)c2cccc(C)c2)cc1OC` [Compound 52, N-[4-(4-Ethoxy-3-methoxyphenyl)-1,2,5-oxadiazol-3-yl]-3-methylbenzamide], the melting point stood at 260 °C. This compound also gave an IC50 at 72 h in series [6] of 23.8 µM. Besides, the “S.I. = IC50 (Cyt.)/IC50 (P.f.NF54)” value in series [2] was found to be 86.47. For the same compound, the pIC50 in series [2] (setting [8]) is 6.56. In series [5], the inhibition at 10 min, 20 µM worked out at 52%.
The like results for `Cc1cccc(C(=O)Nc2nonc2-c2cccc(N)c2)c1` [Compound 61, N-[4-(3-Aminophenyl)-1,2,5-oxadiazol-3-yl]-3-methylbenzamide] were, in that order, 172 °C, 186 µM, 6.182, 4.52 and 99%.
As to `COc1cc([C@@H]2c3cc4c(cc3[C@H](O)[C@H]3COC(=O)[C@H]23)OCO4)cc(OC)c1OC` [POD, podophyllotoxin, reference compound], the pIC50 in series [1] (setting [7]) is 7.92.
In the case of “N-[4-(4-Fluorophenyl)-3-(trifluoromethyl)-1,2,5-oxadiazol-3-yl]benzamide [Compound 50]”, the pIC50 was 5.13 in series [1] and 5.06 in series [2] (chloroquine-sensitive strain NF54, average of four determinations, read-out: P.f. NF54 IC50).

Source of the values: article PMC10572347, “Structure–Activity Relationships and Antiplasmodial Potencies of Novel 3,4-Disubstituted 1,2,5-Oxadiazoles” (International Journal of Molecular Sciences, 2023).
